PubChem BioAssay AID248 (DTP/NCI, 2004)
Toxic doses and inconclusive results are not listed. No stated cut-off is given here; in the data, active means T/C of 150% or more; inactive means T/C below 125%.

System: L1210 leukemia ip in BDF1 mice, survival T/C
Assay: NCI In Vivo Anticancer Drug Screen. Data for tumor model L1210 Leukemia (intraperitoneal) in B6D2F1 (BDF1) mice
Settings: endpoint: mean survival time, higher = longer survival
Procedure, shortened: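 Transplanted-tumor mice were given test agent; controls received vehicle only. Survival readings from the two groups were divided (treated over control).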

[1] = dose: 100.0 mg/kg/injection, schedule: Q01DX009 (ip), vehicle: Klucel (hydroxypropylcellulose) (HPC)
[2] = dose: 100.0 mg/kg/injection, schedule: Q04DX003 (ip), vehicle: Klucel (hydroxypropylcellulose) (HPC)
[3] = dose: 200.0 mg/kg/injection, schedule: Q01DX009 (ip), vehicle: Klucel (hydroxypropylcellulose) (HPC)
[4] = dose: 200.0 mg/kg/injection, schedule: Q04DX003 (ip), vehicle: Klucel (hydroxypropylcellulose) (HPC)
[5] = dose: 400.0 mg/kg/injection, schedule: Q04DX003 (ip), vehicle: Klucel (hydroxypropylcellulose) (HPC)
[6] = dose: 100.0 mg/kg/injection, schedule: Q01DX001 (ip), vehicle: other
[7] = dose: 200.0 mg/kg/injection, schedule: Q01DX001 (ip), vehicle: other
[8] = dose: 400.0 mg/kg/injection, schedule: Q01DX001 (ip), vehicle: other
[9] = dose: 100.0 mg/kg/injection, schedule: Q04DX003 (ip), vehicle: saline with Tween-80
[10] = dose: 200.0 mg/kg/injection, schedule: Q04DX003 (ip), vehicle: saline with Tween-80
[11] = dose: 400.0 mg/kg/injection, schedule: Q04DX003 (ip), vehicle: saline with Tween-80
[12] = dose: 100.0 mg/kg/injection, schedule: Q01DX001 (ip), vehicle: acetone
[13] = dose: 400.0 mg/kg/injection, schedule: Q01DX001 (ip), vehicle: acetone
[14] = dose: 100.0 mg/kg/injection, schedule: Q01DX009 (ip), vehicle: saline
[15] = dose: 200.0 mg/kg/injection, schedule: Q01DX009 (ip), vehicle: saline

Measured: T/C

CS(=O)(=O)OCC(O)C(O)CI (stereo not given)
inactive: dose: 75.0 mg/kg/injection, schedule: Q01DX001 (ip), vehicle: water 104 % of control | dose: 150.0 mg/kg/injection, schedule: Q01DX001 (ip), vehicle: water 111 % of control | dose: 300.0 mg/kg/injection, schedule: Q01DX001 (ip), vehicle: water 116 % of control

O=c1oc(-c2ccco2)nc2ccccc12
inactive: [1] 101 % of control | [2] 102 % of control | [3] 110 % of control | [4] 95 % of control | [5] 93 % of control

CCN(CC)Cc1cc(Cl)cc(Cc2cc(Cl)cc(CN(CC)CC)c2O)c1O
inactive: dose: 200.0 mg/kg/injection, schedule: Q04DX003 (ip), vehicle: acetone 109 % of control | dose: 400.0 mg/kg/injection, schedule: Q04DX003 (ip), vehicle: acetone 98 % of control

CCOC(=O)C(O)(C#CC(C)C)C1CCCCC1 (stereo not given)
inactive: [6] 94 % of control | [7] 89 % of control | [8] 94 % of control

CCCCNS(=O)(=O)CCCC
inactive: [9] 105 % of control | [10] 101 % of control | [11] 97 % of control

CCC1([N+](=O)[O-])COP(=O)(N2CC2)OC1 (stereo not given)
inactive: dose: 100.0 mg/kg/injection, schedule: Q01DX001 (ip), vehicle: carboxymethylcellulose (CMC) 106 % of control | dose: 200.0 mg/kg/injection, schedule: Q01DX001 (ip), vehicle: carboxymethylcellulose (CMC) 116 % of control

C[n+]1ccccc1/C=C/c1ccc(O)c(O)c1
inactive: dose: 75.0 mg/kg/injection, schedule: Q01DX001 (ip), vehicle: saline 96 % of control | dose: 300.0 mg/kg/injection, schedule: Q01DX001 (ip), vehicle: saline 102 % of control

C=NN=C(NN=C)NN=C
inactive: dose: 15.0 mg/kg/injection, schedule: Q01DX Z (ip), vehicle: methylcellulose (MC) 105 % of control | dose: 30.0 mg/kg/injection, schedule: Q01DX Z (ip), vehicle: methylcellulose (MC) 114 % of control | dose: 60.0 mg/kg/injection, schedule: Q01DX Z (ip), vehicle: methylcellulose (MC) 97 % of control | dose: 120.0 mg/kg/injection, schedule: Q01DX Z (ip), vehicle: methylcellulose (MC) 104 % of control | dose: 120.0 mg/kg/injection, schedule: Q01DX Z (oral), vehicle: methylcellulose (MC) 104 % of control | dose: 480.0 mg/kg/injection, schedule: Q01DX Z (oral), vehicle: methylcellulose (MC) 93 % of control

O=C(/C(=N/N=C\c1ccc([N+](=O)[O-])cc1)c1ccccc1)c1ccccc1
inactive: [9] 96 % of control | [10] 96 % of control | [11] 94 % of control

O=C(NCCCl)Nc1cccc2c1CCC2
inactive: [2] 93 % of control | [4] 86 % of control

CCCCCCCCCCCCCCC1CC(=O)OC1=O (stereo not given)
inactive: [1] 92 % of control | [2] 86 % of control | [3] 86 % of control | [4] 88 % of control | [5] 93 % of control

Nc1c(F)c(F)c(N)c(F)c1F
inactive: [12] 93 % of control | [13] 89 % of control

COc1ccc(CC2Cc3cc(OC)c(OC)cc3C=N2)cc1OC (stereo not given)
inactive: [14] 100 % of control | dose: 100.0 mg/kg/injection, schedule: Q04DX003 (ip), vehicle: saline 98 % of control | [15] 100 % of control | dose: 200.0 mg/kg/injection, schedule: Q04DX003 (ip), vehicle: saline 93 % of control | dose: 400.0 mg/kg/injection, schedule: Q04DX003 (ip), vehicle: saline 91 % of control

O=C(O)CCC1CCC(=O)C1 (stereo not given)
inactive: dose: 50.0 mg/kg/injection, schedule: Q04DX002 (ip), vehicle: saline with Tween-80 102 % of control | dose: 100.0 mg/kg/injection, schedule: Q04DX002 (ip), vehicle: saline with Tween-80 106 % of control | dose: 200.0 mg/kg/injection, schedule: Q04DX002 (ip), vehicle: saline with Tween-80 98 % of control | dose: 400.0 mg/kg/injection, schedule: Q04DX002 (ip), vehicle: saline with Tween-80 95 % of control

CCCCCCc1c(C(OC)OC)[nH]c(=S)[nH]c1=O
inactive: [1] 91 % of control | [2] 96 % of control | [3] 87 % of control | [4] 98 % of control | dose: 400.0 mg/kg/injection, schedule: Q01DX009 (ip), vehicle: Klucel (hydroxypropylcellulose) (HPC) 87 % of control | [5] 96 % of control

O=C(O)CSc1nc2ccccc2s1
inactive: dose: 100.0 mg/kg/injection, schedule: Q01DX009 (ip), vehicle: saline with Tween-80 107 % of control

CNC(=O)C(=O)NCCCN1CC1
inactive: dose: 12.5 mg/kg/injection, schedule: Q04DX003 (ip), vehicle: Klucel (hydroxypropylcellulose) (HPC) 114 % of control | dose: 25.0 mg/kg/injection, schedule: Q04DX003 (ip), vehicle: Klucel (hydroxypropylcellulose) (HPC) 104 % of control

CC[Si](CC)(CC)c1ccc(CCNCCS)s1
inactive: dose: 75.0 mg/kg/injection, schedule: Q04DX003 (ip), vehicle: saline 95 % of control | dose: 150.0 mg/kg/injection, schedule: Q04DX003 (ip), vehicle: saline 93 % of control

CC(=O)NCS(=O)(=O)O
inactive: [14] 104 % of control | [15] 96 % of control

CC(C)(C)N1CC(C(=O)c2ccc3ccccc3c2)C1c1ccccc1 (stereo not given)
inactive: [9] 93 % of control | [10] 98 % of control | [11] 88 % of control

COc1cc2c(c3c1c(=O)c1ccccc1n3C)C=CC(C)(C)O2
inactive: dose: 6.0 mg/kg/injection, schedule: Q01DX001 (ip), vehicle: acetone 101 % of control | dose: 7.5 mg/kg/injection, schedule: Q01DX Z (ip), vehicle: other 106 % of control | dose: 12.0 mg/kg/injection, schedule: Q01DX001 (ip), vehicle: acetone 97 % of control | dose: 15.0 mg/kg/injection, schedule: Q01DX001 (ip), vehicle: other 97 % of control | dose: 15.0 mg/kg/injection, schedule: Q01DX Z (ip), vehicle: other 114 % of control | dose: 25.0 mg/kg/injection, schedule: Q01DX001 (ip), vehicle: acetone 105 % of control | dose: 30.0 mg/kg/injection, schedule: Q01DX001 (ip), vehicle: other 94 % of control | dose: 30.0 mg/kg/injection, schedule: Q01DX Z (ip), vehicle: other 122 % of control | dose: 50.0 mg/kg/injection, schedule: Q01DX001 (ip), vehicle: acetone 118 % of control | dose: 50.0 mg/kg/injection, schedule: Q01DX009 (ip), vehicle: acetone 103 % of control | dose: 60.0 mg/kg/injection, schedule: Q01DX001 (ip), vehicle: other 105 % of control | dose: 60.0 mg/kg/injection, schedule: Q01DX Z (ip), vehicle: other 103 % of control | [12] 114 % of control | dose: 100.0 mg/kg/injection, schedule: Q01DX009 (ip), vehicle: acetone 91 % of control | dose: 120.0 mg/kg/injection, schedule: Q01DX001 (ip), vehicle: other 105 % of control | [13] 116 % of control

COc1cccc2cc(C3(c4ccccc4)OC(=O)c4ccccc43)ccc12 (stereo not given)
inactive: [6] 90 % of control | [7] 94 % of control | [8] 95 % of control

CCS(=O)(=O)c1ccc2nnnn2n1
inactive: dose: 6.25 mg/kg/injection, schedule: Q04DX003 (ip), vehicle: saline 103 % of control | dose: 12.5 mg/kg/injection, schedule: Q04DX003 (ip), vehicle: saline 100 % of control | dose: 25.0 mg/kg/injection, schedule: Q04DX003 (ip), vehicle: saline 112 % of control
